Assay results as given in EP0286364B1, “Substituted Di-t-Butylphenols” (RIKER LABORATORIES, INC., priority 1987, dated 1988).

Test system: male Hartley strain guinea pigs
Test: Konzett-Rossler in vivo test, antigen challenge of sensitized guinea pigs
Conditions: dosed orally, about 5 to 40 mg/kg, suspension in 4% aqueous acacia; ovalbumin 300 µg/kg intravenously 30 minutes later; bronchoconstrictor response
Method: The oral activity of compounds of Formula I may be demonsrated using the Konzett-Rossler in vivo test method. The activity is determined according to the procedure which follows. The Konzett-Rossler technique (H.Konzett and R. Rossler, Naunyn-Schmiedbergs Arch. Pharmakol., 195, 71-74, 1940 is used to assess the effect of compounds of Formula I of the invention on antigen challenge of male Hartley strain guinea pigs (350-500g). Fourteen days after sensitization with ovalbumin (50 mg/kg intraperitoneally) guinea pigs are anesthetized with pentobarbital (70 mg/kg intraperitoneally) and spontaneous respiration is eliminated with succinylcholine (2 mg/kg intra-peritoneally). The trachea is cannulated and respiration is maintained under positive pressure with a minature ventilator (5 ml/breath, 87 breaths/minute, 10 cm water). Bronchoconstrictor responses are represented as increased excursions of the tracing on a physiological recorder of air overflow to the lungs measured by a pneumotachograph in series with a differential pressure transducer. The guinea pigs are pretreated with an antihistamine, for example, chlorpheniramine, and are then dosed orally at a level of about 5 to 40 mg/kg with a suspension of a compound of Formula I of the invention in 4% aqueous acacia. The animals are challenged with ovalbumin (300 »g/kg intravenously) thirty (30) minutes later.

CC(C)(C)c1cc(C(=O)Nc2cccc(-c3nnn[nH]3)c2)cc(C(C)(C)C)c1O.O [Example 7, 5-[3-(3,5-di-t-butyl-4-hydroxybenzamido)phenyl]tetrazole hydrate]
oral activity: good oral activity
